Values of other authors as cited in US9849144B2 (Healios Oncology Nutrition, LLC, priority 2013, dated 2017).

How the values were obtained:
CaCo-2 cells = conditions: glucose containing disaccharides
[1] = in vivo

SMILES	increase of GLN uptake (CaCo-2 cells)	relative humidity up to which crystalline form is stable and remains free flowing	daily dose with no safety or toxicity concerns [1]
OC[C@H]1O[C@H](O[C@H]2O[C@H](CO)[C@@H](O)[C@H](O)[C@H]2O)[C@H](O)[C@@H](O)[C@@H]1O [trehalose, α-D-glucopyranosyl-1,1-α-D-glucopyranoside]	a thousand fold	up to 94 % relative humidity	–
NC(=O)CC[C@H](N)C(=O)O [Glutamine, L-glutamine]	–	–	up to 40 grams a day
